Counter-ions that a name gives are not always drawn. A value given as a limit tells only on which side of the number the result lay.

Results on 26 compounds are retold here after patent US20040198756A1, “Medicaments” (priority 2001, published 2004).

The first experiment is described as follows: MIC of test compounds against various organisms. The format is cell-based. The settings on record: bound holds for all 11 organisms of the panel; read-out: MIC versus all these organisms. The protocol: The MIC (jig/ml) of test compounds against various organisms was determined:
S. aureus Oxford, S. aureus WCUH29, S. pneumoniae 1629, S. pneumoniae N1387, S. pneumoniae ERY 2, E. faecalis I, E. faecalis 7, H. influenzae Ql, H. influenzae NEMC1, M. catarrhalis 1502, E. coli 7623.
The MIC is the lowest concentration found to suppress growth. In the case of `COc1ccc2nccc(CCC3(O)CCN(CCc4ccc5c(c4)NC(=O)CS5)CC3)c2n1` [Example 28, 6-(2-{4-hydroxy-4-[2-(6-methoxy-[1,5]naphthyridin-4-yl)ethyl]piperidin-1yl}ethyl)-4H-benzo[1,4]thiazin-3-one], the minimal inhibitory concentration (MIC) is ≤ 4 µg/mL. For the compound `COc1ccc2nccc(N3CCC4(CCN(C[C@H](O)c5ccc6c(c5)NC(=O)CO6)CC4)C3=O)c2n1` [Example 7, 6-{1-R,S-Hydroxy-2-[2-(6-methoxy-[1,5]naphthyridin-4-yl)-1-oxo-2,8-diaza-spiro[4.5]dec-8-yl]-ethyl)4H-benzo[1,4]oxazin-3-one oxalate], the minimal inhibitory concentration (MIC) is ≤ 16 µg/mL. With `COc1ccc2nccc(NC(=O)C3(OC)CCN(C[C@H](O)c4ccc5c(n4)NC(=O)CS5)CC3)c2n1` (racemic) [Example 23, 4-Methoxy-1-[2-(RS)-2-hydroxy-2-(3-oxo-3,4-dihydro-2H-pyrido[3,2-b][1,4]-thiazin-6-yl)-ethyl]-piperidine-4-carboxylic acid (6-methoxy-[1,5]naphthyridinyl)amide dihydrochloride], the minimum inhibitory concentration (MIC) is ≤ 4 µg/mL.

`COc1ccc2nccc(NC(=O)C3(O)CCN(C[C@H](O)c4ccc5c(n4)NC(=O)CS5)CC3)c2n1` (racemic) [Example 22, 4-Hydroxy-1-[2-(RS)-2-hydroxy-2-(3-oxo-3,4-dihydro-2H-pyrido[3,2-b][1,4]thiazin-6-yl)-ethyl]-piperidine-4-carboxylic acid (6-methoxy-[1,5]naphthyridin-4-yl)amide dihydrochloride]: the MIC is ≤ 4 µg/mL. Turning to `COc1ccc2nccc(NC(=O)C3(O)CCN(CCc4cc5c(cn4)OCCO5)CC3)c2n1` [Example 25, 1-[2-(2,3-Dihydro-[1,4]dioxino[2,3-c]pyridin-7-yl)-ethyl]4-hydroxy-piperidine-4-carboxylic acid(6-methoxy-[1,5]naphthyridin-4-yl)-amide hydrochloride], the MIC was ≤ 4 µg/mL. The same measure, in the same setting: then `COc1ccc2nccc(NC(=O)C3(C(N)=O)CCN(C[C@@H](O)c4ccc5c(c4)OCCO5)CC3)c2n1` [Example 21, 1-[2-(2,3-Dihydro-benzo[1,4]dioxin-6-yl)-2-R,S-hydroxy-ethyl]-piperidine-4,4-dicarboxylic acid amide (6-methoxy-[1,5]naphthyridin-4-yl)-amide dihydrochloride], with ≤ 16 µg/mL. Same read-out and setting: for `COc1cc(F)c2nccc(NC(=O)C3(O)CCN(CCc4cc5c(cn4)OCCO5)CC3)c2c1` [Example 26, 1-[2-(2,3-Dihydro-[1,4]dioxino[2,3-c]pyridin-7-yl)-ethyl]-4-hydroxy-piperidine-4-carboxylic acid(8-fluoro-6-methoxy-quinolin-4-yl)-amide hydrochloride] the value was ≤ 4 µg/mL; for `COc1ccc2nccc(NC(=O)C3(N)CCN(CC(O)c4ccc5c(c4)NC(=O)CS5)CC3)c2n1` (centres unmarked) [Example 12, 4-Amino-1-[2-R,S-hydroxy-2-(3-oxo-3,4-dihydro-2H-benzo[1,4]thiazin-6-yl)-ethyl]-piperidine-4-carboxylic acid (6-methoxy-[1,5]naphthyridinyl)-amide dihydrochloride], ≤ 4 µg/mL. On the same count and under the same terms, for `COc1ccc2nccc(NC(=O)C3(OC)CCN(CC(O)c4ccc5c(c4)NC(=O)CS5)CC3)c2n1` (centres unmarked) [Example 16, 1-[2-R,S-Hydroxy-2-(3-oxo-3,4-dihydro-2H-benzo[1,4]thiazin-6-yl)-ethyl]-4-methoxy-piperidine-4-carboxylic acid (6-methoxy-[1,5]naphthyridin-4-yl)-amide dihydrochloride] the value was ≤ 4 µg/mL. For the compound `COc1ccc2nccc(CCC3(O)CCN(C[C@H](O)c4ccc5c(c4)NC(=O)CS5)CC3)c2n1` (racemic) [Example 27, 6-((R,S)-1-Hydroxy-2-(4-hydroxy-4-[2-(6-methoxy-[1,5]naphthyridin-4-yl)ethyl]piperidin-1yl}ethyl)-4H-benzo[1,4]thiazin-3-one], the MIC is ≤ 4 µg/mL. As for `COc1ccc2nccc(NC(=O)[C@@]3(O)CCN(CCc4ccc5c(c4)NC(=O)CS5)C[C@@H]3O)c2n1` (racemic) [Example 18, (3S/R,4R/S)-3,4-Dihydroxy-1-[2-(3-oxo-3,4-dihydro-2H-benzo[1,4]thiazin-6-yl)-ethyl]-piperidine-4-carboxylic acid (6-methoxy-[1,5]naphthyridin-4-yl)amide dihydrochloride], the MIC was ≤ 4 µg/mL. With `COc1ccc2nccc(NC(=O)C3(O)CCN(CC(O)c4ccc5c(c4)NC(=O)CS5)CC3)c2n1` (centres unmarked) [Example 9, 4-Hydroxy-1-[2-R,S-hydroxy-2-(3-oxo-3,4-dihydro-2H-benzo[1,4]thiazin-6-yl)-ethyl]-piperidine-4-carboxylic acid (6-methoxy-[1,5]naphthyridin-4-yl)amide oxalate], the minimum inhibitory concentration (MIC) is ≤ 4 µg/mL. Still for that read-out and setting: then `COc1ccc2nccc(NC(=O)C3(N)CCN(CC(O)c4cc5c(cc4F)SCC(=O)N5)CC3)c2n1` (centres unmarked) [Example 11, 4-Amino-1-[2-(7-fluoro-3-oxo-3,4-dihydro-2H-benzo[1,4]thiazin-6-yl)-2-R,S-hydroxy-ethyl]-piperidine-4-carboxylic acid (6-methoxy-[1,5]naphthyridin-4-yl)-amide dioxalate], with ≤ 16 µg/mL; and `COc1ccc2nccc(NC(=O)C3(OC)CCN(C[C@@H](O)c4ccc5c(c4)OCCO5)CC3)c2n1` [Example 17, 1-[2-(2,3-Dihydro-benzo[1,4]dioxin-6-yl)-2-R,S-hydroxy-ethyl]-4-methoxy-piperidine-4-carboxylic acid (6-methoxy-[1,5]naphthyridin-4-yl)-amide dihydrochloride], with ≤ 16 µg/mL.

The same experiment, now with this note: bound holds only for some of the 11 organisms of the panel; read-out: MIC versus some of these organisms.
On to `COc1ccc2nccc(NC(=O)[C@@]3(O)CCN(CCc4ccc5c(c4)NC(=O)CS5)C[C@@H]3OC)c2n1` [Example 19, 4-R/S-Hydroxy-3-S/R-methoxy-1-[2-(3-oxo-3,4-dihydro-2H-benzo[1,4]thiazin-6-yl)-ethyl]-piperidine-4-carboxylic acid (6-methoxy-[1,5]naphthyridinyl)-amide dihydrochloride], for which the minimum inhibitory concentration (MIC) is ≤ 64 µg/mL. Turning to `COc1ccc2nccc(NC(=O)C3(C(=O)O)CCN(CCc4ccc5c(c4)NC(=O)CS5)CC3)c2n1` [Example 6, 4-(6-Methoxy-[1,5]naphthyridin-4-ylcarbamoyl)-1-[2-(3-oxo-3,4-dihydro-2H-benzo[1,4]thiazin-6-yl)-ethyl]-piperidine-4-carboxylic acid], the minimum inhibitory concentration (MIC) is ≤ 64 µg/mL.

Staying with this experiment, now noted: read-out: MIC versus all these organisms.
Take `COc1ccc2nccc(NC(=O)C3(O)CCN(CCc4ccc5c(c4)OCO5)CC3)c2n1` [Example 3, 1-(2-Benzo[1,3]dioxol-5-yl-ethyl)-4-hydroxy-piperidine-4-carboxylic acid (6-methoxy-[1,5]naphthyridin-4yl)amide oxalate]: the MIC is ≤ 16 µg/mL. With `COc1ccc2nccc(NC(=O)C3(O)CCN(CC(=O)c4ccc5c(c4)NC(=O)CS5)CC3)c2n1` [Example 8, 4-Hydroxy-1-[2-oxo-2-(3-oxo-3,4-dihydro-2H-benzo[1,4]thiazin-6-yl)-ethyl]-piperidine-4-carboxylic acid (6-methoxy-[1,5]naphthyridin-4-yl)-amide oxalate], the minimal inhibitory concentration (MIC) is ≤ 64 µg/mL. Turning to `COc1ccc2nccc(NC(=O)C3(O)CCN(CCc4cc5c(nn4)SCC(=O)N5)CC3)c2n1` [Example 14, 4-Hydroxy-1-[2-(6-oxo-6,7-dihydro-5H-pyridazino[3,4-b][1,4]thiazin-3-yl)-ethyl]-piperidine-4-carboxylic acid (6-methoxy-[1,5]naphthyridin-4-yl)-amide dihydrochloride], the MIC is ≤ 4 µg/mL. Take `COc1ccc2nccc(NC(=O)C3(O)CCN(CC(O)c4ccc5c(c4)OCCO5)CC3)c2n1` (racemic) [Example 13, 1-[2-(2,3-Dihydro-benzo[1,4]dioxin-6-yl)-2-(R,S)-hydroxy-ethyl]-4-hydroxy-piperidine-4-carboxylic acid (6-methoxy-[1,5]naphthyridin-4-yl)-amide dihydrochloride]: the minimum inhibitory concentration (MIC) was ≤ 16 µg/mL. With `COc1ccc2nccc(NC(=O)C3(O)CCN(CCc4ccc5c(c4)NC(=O)CS5)CC3)c2n1` [Example 5, 4-Hydroxy-1-[2-(3-oxo-3,4-dihydro-2H-benzo[1,4]thiazin-6-yl)-ethyl]-piperidine-4-carboxylic acid (6-methoxy-[1,5]naphthyridin-4-yl)-amide oxalate], the minimal inhibitory concentration (MIC) is ≤ 64 µg/mL. With `COc1ccc2nccc(NC(=O)C3(C#N)CCN(CCc4ccc5c(c4)NC(=O)CS5)CC3)c2n1.Cl.Cl` [Example 20, 4-Cyano-1-[2-(3-oxo-3,4-dihydro-2H-benzo[1,4]thiazin-6-yl)-ethyl]-piperidine-4-carboxylic acid (6-methoxy-[1,5]naphthyridin-4-yl)-amide dihydrochloride], the MIC was ≤ 64 µg/mL. Still for that read-out and setting: for `COc1ccc2nccc(NC(=O)C3(CO)CCN(CCc4ccc5c(c4)NC(=O)CS5)CC3)c2n1` [Example 10, 4-Hydroxymethyl-1-[2-(3-oxo-3,4-dihydro-2H-benzo[1,4]thiazin-6-yl)-ethyl]-piperidine-4-carboxylic acid (6-methoxy-[1,5]naphthyridin-4-yl)-amide oxalate] the value was ≤ 4 µg/mL; for `COc1ccc2nccc(NC(=O)C3(N)CCN(CCc4ccc5c(c4)NC(=O)CS5)CC3)c2n1` [Example 2, 4-Amino-1-[2-(3-oxo-3,4-dihydro-2H-benzo[1,4]thiazin-6-yl)-ethyl]-piperidine-4-carboxylic acid (6-methoxy-[1,5]naphthyridin-4-yl)amide dioxalate], ≤ 4 µg/mL; for `COc1ccc2nccc(NC(=O)C3(C)CCN(CCc4ccc5c(c4)OCO5)CC3)c2n1` [Example 4, 1-(2-Benzo[1,3]dioxol-5-yl-ethyl)4-methylpiperidine-4-carboxylic acid (6-methoxy-[1,5]naphthyridin-4-yl)-amide oxalate], ≤ 16 µg/mL. On the same count and under the same terms, for `COc1ccc2nccc(NC(=O)C3(C)CCN(CCc4ccc5c(c4)NC(=O)CS5)CC3)c2n1` [Example 1, 4-Methyl-1-[2-(3-oxo-3,4-dihydro-2H-benzo[1,4]thiazin-6-yl)-ethyl]-piperidine-4-carboxylic acid (6-methoxy-[1,5]naphthyridin-4-yl)amide oxalate] the value was ≤ 4 µg/mL.
